Measured values as given in US12383514B2, “Nano-particles of menaquinone and methods of treatment” (Epizon, Inc., priority 2023, dated 2025).

Experiments:
[1] = tested on: PC12 cells; conditions: cited from earlier work
[2] = tested on: caspase-3; conditions: concentration of 10 mcmol/L; cited from earlier work
[3] = Dissolution testing of MK-7 nanosuspension in FeSSIF (summary study 2); assay type: physicochemical; conditions: FeSSIF pH 5, 37 °C, 0.0104 mg/mL
Method: (§1) MK-7 (menaquinone-7, API) was suspended in an aqueous vehicle containing wetting agent, sodium deoxycholate. The API concentration was 4% and the wetting agent concentration was 0.4% w/w. The API particles were milled to a particle size of 156 nm by use of zirconium milling beads and high shear Beadbeater mixing. The dissolution of the nanosuspension was tested at a concentration of 0.01 mg/mL, in triplicate, in pH 5 FeSSIF.
Clean dissolution system with DI water. Fill 3× vessels with 500 mL of FeSSIF media and heat to 37° C. Set up the following dissolution conditions:
Vortex suspension×1 minute so that it is uniform. Weigh 3×0.15 g portions of nanosuspension into a tared syringe to give a target 100% dissolution concentration of 0.01 mg/mL. Record weight. Add weighed suspension directly to each vessel. Start at Timer.
At 5 mins, manually pull up 3 mL from each vessel in a syringe. Attach a 0.2 μm filter to the syringe. Transfer 2 mL of the aliquot back into the vessel. Transfer the final 1 mL of aliquot to an HPLC vial and crimp seal. Repeat Steps #8-11 at 10, 15, 30, 45 and 60 mins. After the 60-minute time-point, mix each vessel for 5 minutes with a high shear mixer. Repeat Step #8-11 and label this sample as ‘infinity’.
Run samples on HPLC 10-minute HPLC method with replicate HPLC STDs.

[4] = Dissolution testing of MK-7 nanosuspension in FeSSIF (study 1, 500 mL media); assay type: physicochemical; conditions: FeSSIF pH 5, 37 °C, 0.01 mg/mL drug load
Method: as §1, with “agent” for “agent,”, “deoxycholat.” for “deoxycholate.”, “155” for “156”, “using” for “by use of”, “Fed State Simulated Intestinal Fluid (FeSSIF).” for “FeSSIF.”
1. Clean dissolution system with DI water. Prepare FeSSIF: 2. Fill three (3) vessels with 500 mL of FeSSIF media and heat to 37° C. 3. Set up the following dissolution conditions:
4. Vortex suspension x for approximately one minute so that it is uniform. Weigh three (3) aliquots of 0.15 g of the 4% nanosuspension into a tared syringe to give a target 100% dissolution concentration of 0.01 mg/mL. Record weight. 5. Add weighed suspension directly to each vessel. 6. Start at Timer. 7. After five minutes, manually pull up 3 mL from each dissolution vessel in a syringe. 8. Attach a 0.2 μm filter to the syringe. 9. Transfer 2 mL of the dissolution sample back into the vessel. 10. Transfer the final 1 mL of sample to an amber HPLC vial and crimp seal. 11. Repeat Steps #8-11 at 10, 15, 30, 45 and 60 mins. 12. After the 60-minute time-point, mix each vessel for 5 minutes with a high shear mixer. 13. Repeat Step #8-11 and label this sample as ‘infinity’. 14. Run samples on HPLC 10 minutes HPLC method with replicate HPLC standard solutions.

[5] = Infinity (after 5 min high shear mixing)

vitamin K2
neuronal death resulting from Aβ(1-42) ([1]; PC12 cells): prevented neuronal death
apoptosis after exposure to H2O2 or Aβ(1-42) ([1]; cells pretreated with vitamin K2): significantly less apoptosis
decrease of caspase-3 activity [2]: 2.5 fold

CC(C)=CCC/C(C)=C/CC/C(C)=C/CC/C(C)=C/CC/C(C)=C/CC/C(C)=C/CC/C(C)=C/CC1=C(C)C(=O)c2ccccc2C1=O [API, menaquinone-7]
% Dissolution (Avg of n = 3) [3, 5]: 10.1%
% Dissolution (Avg of n = 3) ([3]; timepoint 0 min): 0.0%
% Dissolution (Avg of n = 3) ([3]; timepoint 5 min): 4.1%
% Dissolution (Avg of n = 3) ([3]; timepoint 10 min): 9.1%
% Dissolution (Avg of n = 3) ([3]; timepoint 15 min): 8.3%
% Dissolution (Avg of n = 3) ([3]; timepoint 30 min): 16.6%
% Dissolution (Avg of n = 3) ([3]; timepoint 45 min): 7.9%
% Dissolution (Avg of n = 3) ([3]; timepoint 60 min): 5.3%
% Dissolution (Avg of n = 3) [4, 5]: 97.0%
% Dissolution (Avg of n = 3) ([4]; timepoint 0 min): 0%
% Dissolution (Avg of n = 3) ([4]; timepoint 10 min): 96.7%
% Dissolution (Avg of n = 3) ([4]; timepoint 15 min): 97.3%
% Dissolution (Avg of n = 3) ([4]; timepoint 30 min): 97.8%
% Dissolution (Avg of n = 3) ([4]; timepoint 45 min): 97.7%
% Dissolution (Avg of n = 3) ([4]; timepoint 60 min): 95.7%
